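How tested: cells in 96-well plates exposed to compound for 48 hours at five concentrations. GI50 is the concentration that inhibits growth by half.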 Calls of active or inactive are those of the source. No stated cut-off is given here; in the data, active = GI50 up to about 1.1 µM and inactive = higher.
What was measured:
Experiment in all cases: NCI tumour cell line growth inhibition, 48 h
[1] = system: CCRF-CEM
[2] = system: HCT-116
[3] = system: HOP-92
[4] = system: LOX IMVI
[5] = system: M14
[6] = system: NCI-H226
[7] = system: OVCAR-4
[8] = system: OVCAR-5
[9] = system: PC-3
[10] = system: SF-268
[11] = system: SF-295
[12] = system: SF-539
[13] = system: SK-MEL-2
[14] = system: SNB-19
[15] = system: SNB-75
[16] = system: SR
[17] = system: SW-620
[18] = system: U-251
[19] = system: UACC-257
[20] = system: UACC-62

Measured: GI50

O=C1/C(=C/c2ccc(O)c(O)c2)CC/C1=C\c1ccc(O)c(O)c1
inactive: [1] 1.65 µM | [2] 3.58 µM | [3] 4.17 µM | [4] 6.67 µM | [5] 3.03 µM | [6] 7.46 µM | [7] 5.33 µM | [8] > 42.2 µM | [9] 11.8 µM | [10] 5.52 µM | [11] > 44.5 µM | [12] 2.49 µM | [13] 22.7 µM | [14] 7.11 µM | [15] 6.7 µM | [16] 2.3 µM | [17] 14 µM | [18] 3.97 µM | [19] 20.8 µM | [20] 3.79 µM

O=C(OC1C=C=CS(=O)(=O)CC#C/C=C\1)c1cnc2ccccc2n1 (stereo not given)
inactive: [1] > 100 µM | [2] 92.3 µM | [3] 12.7 µM | [4] 29.8 µM | [5] > 100 µM | [6] > 100 µM | [7] > 100 µM | [8] > 100 µM | [9] > 100 µM | [10] > 100 µM | [11] > 100 µM | [12] > 100 µM | [13] > 100 µM | [14] > 100 µM | [15] > 100 µM | [16] 68.9 µM | [17] 40.8 µM | [18] 84.1 µM | [19] > 100 µM | [20] 26.4 µM

Cc1c(OCc2cccc3ccccc23)ccc2c(=O)cc(SCCN3CCOCC3)oc12
inactive: [1] > 100 µM | [2] > 100 µM | [3] > 100 µM | [4] > 100 µM | [5] > 100 µM | [6] > 100 µM | [7] 38.5 µM | [8] 78.2 µM | [9] > 100 µM | [10] > 100 µM | [11] > 100 µM | [12] > 100 µM | [13] > 100 µM | [14] > 100 µM | [15] > 100 µM | [16] > 100 µM | [17] > 100 µM | [18] > 100 µM | [19] > 100 µM | [20] > 100 µM

O=C1NC(N2CCOCC2)=N/C1=C\c1ccc(O)cc1
inactive: [1] > 100 µM | [2] > 100 µM | [3] > 100 µM | [4] > 100 µM | [5] > 100 µM | [6] > 100 µM | [7] > 100 µM | [8] > 100 µM | [9] > 100 µM | [10] > 100 µM | [11] > 100 µM | [12] > 100 µM | [13] > 100 µM | [14] > 100 µM | [15] 15.7 µM | [16] > 100 µM | [17] > 100 µM | [18] > 100 µM | [19] > 100 µM | [20] > 100 µM

CC1(C)[C@@H]2CC[C@@]1(C)CN(CCC[N+](C)(C)C)C2
inactive: [1] > 100 µM | [2] > 100 µM | [3] > 100 µM | [4] > 100 µM | [5] > 100 µM | [6] > 100 µM | [7] > 100 µM | [8] > 100 µM | [9] > 100 µM | [10] > 100 µM | [11] > 100 µM | [12] > 100 µM | [13] > 100 µM | [14] > 100 µM | [15] > 100 µM | [16] > 100 µM | [17] > 100 µM | [18] > 100 µM | [19] > 100 µM | [20] > 100 µM

O=C(O)C1C(=O)Oc2c(cccc2[N+](=O)[O-])C1O (stereo not given)
inactive: [1] > 100 µM | [2] > 100 µM | [3] > 100 µM | [4] > 100 µM | [5] > 100 µM | [6] > 100 µM | [7] > 100 µM | [8] > 100 µM | [9] > 100 µM | [10] > 100 µM | [11] > 100 µM | [12] > 100 µM | [13] > 100 µM | [14] > 100 µM | [15] > 100 µM | [16] > 100 µM | [17] > 100 µM | [18] > 100 µM | [19] > 100 µM | [20] > 100 µM

N#Cc1c(=O)c2cc([N+](=O)[O-])ccc2n2c1[nH]c1ccccc12
inactive: [1] 5.37 µM | [2] 3.37 µM | [3] 2.62 µM | [4] 5.24 µM | [5] 7.96 µM | [6] 4.58 µM | [7] 3.38 µM | [8] 6 µM | [9] 4 µM | [10] 8.67 µM | [11] 4.2 µM | [12] 17.3 µM | [13] 5.25 µM | [14] 5.41 µM | [15] 10.7 µM | [16] 10.7 µM | [17] 8.71 µM | [18] 7.71 µM | [19] 7.46 µM | [20] 4.59 µM

N#Cc1c(-c2ccc([N+](=O)[O-])cc2)cc(-c2ccc(Nc3ccnc4cc(C(F)(F)F)ccc34)cc2)nc1N
inactive: [1] 1.88 µM | [2] 6.92 µM | [3] 20.8 µM | [4] 3.64 µM | [5] 11.7 µM | [6] > 48.3 µM | [7] 7.6 µM | [8] 30.9 µM | [9] 18.9 µM | [10] 33 µM | [11] 15.9 µM | [12] 26.9 µM | [13] > 41.3 µM | [14] 18.6 µM | [15] 20.4 µM | [16] 1.79 µM | [17] 8.3 µM | [18] 6.34 µM | [19] > 50 µM | [20] 62.4 µM

COc1ccc(/C=C/C(=O)Oc2cc(O)cc(O)c2)cc1
inactive: [1] 11.5 µM | [2] 14.3 µM | [3] 93.1 µM | [4] 20.1 µM | [5] 41.4 µM | [6] > 100 µM | [7] 85.5 µM | [8] > 100 µM | [9] 43.6 µM | [10] 26.2 µM | [11] 23.2 µM | [12] 95.1 µM | [13] > 100 µM | [14] > 100 µM | [15] 38.1 µM | [16] 25.1 µM | [17] 41.1 µM | [18] 24.6 µM | [19] > 100 µM | [20] > 100 µM

CC12CC(=O)C3C(CCC4=CC(=O)CCC43C)C1CC=C2CC(=O)O (stereo not given)
inactive: [1] > 100 µM | [2] > 100 µM | [3] > 100 µM | [4] > 100 µM | [5] > 100 µM | [6] > 100 µM | [7] > 100 µM | [8] > 100 µM | [9] > 100 µM | [10] > 100 µM | [11] > 100 µM | [12] > 100 µM | [13] > 100 µM | [14] > 100 µM | [15] > 100 µM | [16] > 100 µM | [17] > 100 µM | [18] > 100 µM | [19] > 100 µM | [20] > 100 µM

Reference: ChEMBL document CHEMBL1201862, “PubChem BioAssay data set” (2004)
